In ChEMBL document CHEMBL3739372 (Bioorg Med Chem, 2015):

Experiment: Inhibition of Influenza B virus neuraminidase R152K mutant

Structure (SMILES): CCOC(=O)C1=C[C@@H](OC(CC)CC)[C@H](NC(C)=O)[C@@H](N)C1 [OSELTAMIVIR]
- IC50: 85 µM

Structure (SMILES): CCOC(=O)c1cn(CC)c2ccc(-n3cc(C4=CCCCC4)nn3)cc2c1=O
- IC50: 30 µM
